According to patent publication US20210196725A1, “TREATMENT OF RELAPSED FOLLICULAR LYMPHOMA” (MEI Pharma, Inc., priority 2018, published 2021):
Marks after values point to notes of the source that are not given here.

Assays:
[1] = tested on: patients with follicular lymphoma (FL); test: Phase 1b study of Compound A35 alone or with rituximab: disease response in follicular lymphoma patients; format: in vivo, human
Procedure: In an ongoing Phase 1b study, patients with relapsed B-cell malignancies are administered Compound A35 either as a single agent or in combination with the anti-CD20 antibody rituximab (Rituxan®). A total of 90 subjects have been enrolled in the study to date: • 31 subjects enrolled in a dose escalation cohort of Compound A35 administered as a single agent at a daily dose of 60, 120, and 180 mg; • 21 subjects enrolled in an ongoing expansion cohort of Compound A35 administered as a single agent at 60 mg/day, either on a daily continuous schedule (CS) only or on a daily dosing followed by a switch to an intermittent dosing schedule […] beginning in Cycle 3. • 38 subjects enrolled in a cohort of Compound A35 at 60 mg/day on a CS or IS dosing plus infusional rituximab at a dose of 375 mg/m^2 administered for a total of 8 doses in 6 months
Patients with FL were treated with Compound A35 either alone (N=40) or in combination with the anti-CD20 antibody rituximab (N=14). Most patients in the rituximab combination cohort received Compound A35 by intermittent schedule (IS) after 2 cycles of daily dosing of Compound A35.
(§1) Methods: Patients with ECOG ≤2, no prior PI3K therapy and progression of disease (POD) after ≥1 prior therapy were initially enrolled in a dose escalation phase (60-180 mg) then in 60 mg expansion cohorts as monotherapy or in combination with rituximab. Treatment is given in 28-day cycles and continued until POD or unacceptable toxicity. Compound A35 was given initially on a continuous daily dosing schedule. An intermittent dosing schedule on days 1-7 of a 28-day cycle was then evaluated after 2 cycles of daily dosing, or ≥3 cycles of daily dosing to reduce the risk of immune-related adverse events. For this analysis the intermittent schedule (IS) group is defined as patients who received Compound A35 alone or with rituximab daily for 2 cycles then switched to an intermittent schedule of 1 week per cycle, and the continuous schedule (CS) group is defined as patients who never switched to intermittent dosing or switched to intermittent dosing in cycle 4 or later cycles. Toxicity on CS is managed by a switch to IS. Progression of disease (POD) on IS is managed by a switch to CS.

[2] = tested on: patients with follicular lymphoma (FL); test: Phase 1b study: patients with adverse events of special interest (AESI); format: in vivo, human
Procedure: as §1

[3] = tested on: patients with follicular lymphoma (FL); test: Phase 1b study: patient disposition on continuous (CS) or intermittent (IS) schedule; format: in vivo, human
Procedure: as §1

[4] = Tumor exposure of Compound A35 (FIG. 3); format: in vivo; conditions: over a 4-hour and 24-hour period (FIG. 3)
murine B-cell tumors = test: Retention in murine B-cell tumors (FIG. 4); format: in vivo; conditions: compared to idelalisib (FIG. 4)
[5] = All Grades, All (N = 40), single agent therapy
[6] = All Grades, CS Group (N = 25), single agent therapy
[7] = All Grades, CS Group (N = 31), A35 alone or with rituximab
[8] = All Grades, IS Group (N = 15), single agent therapy
[9] = All Grades, IS Group (N = 23), A35 alone or with rituximab
[10] = Grade 3, CS Group (N = 31), A35 alone or with rituximab
[11] = Grade 3, IS Group (N = 23), A35 alone or with rituximab
[12] = Related Grade 3, All (N = 40), single agent therapy
[13] = Related Grade 3, CS Group (N = 25), single agent therapy
[14] = Related Grade 3, IS Group (N = 15), single agent therapy
[15] = CS Group (N = 25), Compound A35 alone arm
[16] = CS Group (N = 31), A35 alone or with rituximab
[17] = FL patients, A35 alone or with rituximab
[18] = IS Group (N = 15), Compound A35 alone arm
[19] = IS Group (N = 23), A35 alone or with rituximab

CN1CCC(c2ccccc2CC(C)(C)Nc2nc(N3CCOCC3)nc(-n3c(C(F)F)nc4ccccc43)n2)CC1 [Compound A35]
rate of response in POD24 patients ([1]; A35 alone or in combination with a CD20 inhibitor, higher than expected with conventional FL therapy): very high rate of response | morphologic/metabolic CR ([1]; FL patients with follow-up disease assessment, Compound A35 alone): 20% | No. (%) of Subjects with a Response ([1]; No POD24, Total (A35 alone and A35 + rituximab cohorts)): 16 (67%) No. (%) | No. (%) of Subjects with a Response ([1]; No POD24 FL subjects evaluable for response): 14 (64%) No. (%) | No. (%) of Subjects with a Response ([1]; POD24, Total (A35 alone and A35 + rituximab cohorts)): 24 (92%) No. (%) | No. (%) of Subjects with a Response ([1]; POD24 FL subjects evaluable for response): 16 (100%) No. (%) | rate of durable responses ([1]; R/R FL): high rate of durable responses | POD24 subjects with response who had PD ([1]; of 24 POD24 subjects who achieved response): 6 subjects | AESI: ALT/AST increased [2, 5]: 9 (22.5%) | AESI: Diarrhea/colitis [2, 5]: 17 (42.5%) | AESI: Mucositis [2, 5]: 6 (15.0%) | AESI: Pneumonia/ Pneumonitis [2, 5]: 2 (5.0%) | AESI: Rash, all types [2, 5]: 12 (30.0%) | AESI: ALT/AST increased [2, 6]: 6 (24.0%) | AESI: Diarrhea/colitis [2, 6]: 10 (40.0%) | AESI: Mucositis [2, 6]: 6 (24.0%) | AESI: Pneumonia/ Pneumonitis [2, 6]: 2 (8.0%) | AESI: Rash, all types [2, 6]: 11 (44.0%) | AESI: ALT/AST increased [2, 7]: 8 (25.8%) | AESI: Diarrhea/colitis [2, 7]: 11 (35.5%) | AESI: Mucositis [2, 7]: 6 (19.4%) | AESI: Pneumonia [2, 7]: 2 (6.5%) | AESI: Rash, all types [2, 7]: 11 (35.5%) | AESI: ALT/AST increased [2, 8]: 3 (20.0%) | AESI: Diarrhea/colitis [2, 8]: 7 (46.7%) | AESI: Mucositis [2, 8]: 0% | AESI: Pneumonia/ Pneumonitis [2, 8]: 0% | AESI: Rash, all types [2, 8]: 1 (6.7%) | AESI: ALT/AST increased [2, 9]: 7 (30.4%) | AESI: Mucositis [2, 9]: 1 (4.3%) | AESI: Pneumonia [2, 9]: 0% | AESI: Rash, all types [2, 9]: 2 (8.7%) | AESI: Diarrhea/colitis ([2]; All Grades, IS Group (N = 23), A35 alone or with rituximab, excluded 1 subject with diarrhea after POD and 1 with one-day diarrhea): 11 (47.8%)* | AESI: ALT/AST increased [2, 10]: 3 (9.7%) | AESI: Diarrhea/colitis [2, 10]: 5 (16.1%) | AESI: Mucositis [2, 10]: 1 (3.2%) | AESI: Pneumonia [2, 10]: 2 (6.5%) | AESI: Rash, all types [2, 10]: 4 (12.9%) | AESI: ALT/AST increased [2, 11]: 1 (4.3%) | AESI: Diarrhea/colitis [2, 11]: 2 (8.7%) | AESI: Mucositis [2, 11]: 0% | AESI: Pneumonia [2, 11]: 0% | AESI: Rash, all types [2, 11]: 0% | Grade 3 immune-related adverse events ([2]; IS group (N=23) compared to the CS group (N=31)): less common | AESI: ALT/AST increased [2, 12]: 3 (7.5%) | AESI: Diarrhea/colitis [2, 12]: 6 (15.0%) | AESI: Mucositis [2, 12]: 1 (2.5%) | AESI: Pneumonia/ Pneumonitis [2, 12]: 2 (5.0%) | AESI: Rash, all types [2, 12]: 4 (10.0%) | AESI: ALT/AST increased [2, 13]: 3 (12.0%) | AESI: Diarrhea/colitis [2, 13]: 5 (20.0%) | AESI: Mucositis [2, 13]: 1 (4.0%) | AESI: Pneumonia/ Pneumonitis [2, 13]: 2 (8.0%) | AESI: Rash, all types [2, 13]: 4 (16.0%) | AESI: ALT/AST increased [2, 14]: 0% | AESI: Diarrhea/colitis [2, 14]: 1 (6.7%) | AESI: Mucositis [2, 14]: 0% | AESI: Pneumonia/ Pneumonitis [2, 14]: 0% | AESI: Rash, all types [2, 14]: 0% | incidence of immune-related adverse events (irAEs) ([2]; intermittent schedule (IS)): appears to reduce the incidence | Patient Disposition: Adverse event [3, 15]: 3 (12%) | Patient Disposition: Progressive disease [3, 15]: 4 (16%) | Patient Disposition: Adverse event [3, 16]: 3 (10%) | Patient Disposition: Progressive disease [3, 16]: 4 (13%) | patients discontinued: POD [3, 17]: 9 patients | patients discontinued: adverse events (AEs) [3, 17]: 4 patients | Patient Disposition: Adverse event [3, 18]: 1 (7%) | Patient Disposition: Progressive disease [3, 18]: 0% | Patient Disposition: Adverse event [3, 19]: 1 (4%) | Patient Disposition: Progressive disease [3, 19]: 0 (0%) | tumor exposure [4]: preferential tumor exposure | retention in murine B-cell tumors (murine B-cell tumors): preferential retention
